Legend:
NaV1.1 = details: cited from earlier work
From the text: (§1) Selective VGSC modulators remain useful tool compounds for delineating the contribution of particular isoforms to the excitability of neurons in both physiological and pathological states. […] In an attempt to rationally ...

NaV1.3 = details: cited from earlier work
From the text: as §1

C57BL/6J mice = test: Spontaneous pain behaviors after intraplantar injection, wildtype mice; details: mouse, in vivo
From the text: For behavioral assessment, we used adult male wildtype or homozygous NaV1.9-deficient (NaV1.9^-/-) mice aged 6–8 weeks (~25g) on a C57BL/6J background. Homozygous Nav1.9 knockout mice on a C57BL/6J background were generated using CRISPR/Cas9 technology by the Queensland Facility for Advanced Genome Editing (The University of Queensland, Australia). In brief, two sgRNAs were designed to target exon 2 of the Scn11a gene. The deletion of exon 2 generated a frame shift mutation resulting in the introduction of stop codons in exon 3. […]
[…]. Mice were then placed individually into polyvinyl boxes (10 × 10 × 10 cm) and recorded by video for 20 min post-injection. The number of spontaneous pain behaviors, including licks, shakes, and flinches, were counted later by a blinded observer. Once spontaneous pain behavior had ceased, mechanical thresholds were assessed using an electronic von Frey apparatus (MouseMet Electronic von Frey, TopCat Metrology, Ely, UK), heat thresholds were assessed using the thermal probe test (MouseMet Thermal), and weight bearing was assessed using the Catwalk XT (Noldus Information Technology, Wageningen, The Netherlands) as previously described. To quantify weight bearing, the parameter ‘mean intensity of the 15 most intense pixels’ was used as a surrogate measure.
Data were plotted and analyzed by GraphPad Prism, versions 8.2.0 and 8.4.2. […]

mouse DRG neurons = type: cell-based
[1] = tested on: voltage-gated calcium channels (CaV); details: cited from earlier work
From the text: Tf2 caused Ca^2+ influx in both small and large mouse adult DRG neurons, which was surprising given NaV1.3 is only expressed at significant levels in embryonic sensory neurons or in adult neurons after axotomy. […] As DRG neurons in this study were isolated from all spinal levels, we cannot rule out the presence of these NaV1.3-expressing neurons in culture. However, given the definitive lack of proteomic evidenc ...

Molecule: O=C(Nc1ccc(S(=O)(=O)Nc2nccs2)cc1)C(c1ccccc1)c1ccccc1 [ICA-121431]
- activity at NaV1.1 (NaV1.1): off-target activity at NaV1.1
- NaV1.3 inhibition (NaV1.3): most potent NaV1.3 inhibitor described to the date
- effect on Tf2-induced spontaneous flinching (C57BL/6J mice): no effect on Tf2-induced spontaneous flinching

Molecule: NC1=N[C@H](O)[C@H]2[C@H]3O[C@]4(O)O[C@@H]([C@@H](O)[C@@]2(N1)[C@@H]4O)[C@]3(O)CO [TTX, tetrodotoxin]
- block of Tf2-induced DRG neuron activation (mouse DRG neurons): completely blocked

B1: kurtoxin: scorpion toxin from Parabuthus transvaalicus (protein, UniProt P58910 1-63, looked up)
Kurtoxin: KIDGYPVDYWNCKRICWYNNKYCNDLCKGLKADSGYCWGWTLSCYCQGLPDNARIKRSGRCRA
- modulation of voltage-gated calcium channels (CaV) [1]: modulate members of the family of voltage-gated calcium channels (CaV)

Reference: paper PMC7345637, “Characterization of Synthetic Tf2 as a NaV1.3 Selective Pharmacological Probe” (Biomedicines, 2020)
